In US4327093A, “3,7-Disubstituted-2 or 3-cephem-4-carboxylic acid compounds” (Fujisawa Pharmaceutical Co., Ltd., priority 1978, dated 1982):
Converted amounts (≈) assume the structure as drawn.

Assays:
Proteus mirabilis 18 = assay: Minimal inhibitory concentration (MIC) by agar streak, HI-agar, 37° C., 20 hours; type: cell-based; details: 10^6 viable cells per ml, 37° C. for 20 hours
Description: (§1) One loopful of an overnight culture of each test strain in Trypticase-soy broth (10^6 viable cells per ml.) was streaked on heart infusion agar (HI-agar) containing graded concentrations of antibiotics, and the minimal inhibitory concentration (MIC) was expressed in terms of μg/ml after incubation at 37° C. for 20 hours.

Klebsiella pneumoniae 20 = assay: as above; type: cell-based; details: 10^6 viable cells per ml, 37° C. for 20 hours
Description: as §1

MIC (Proteus mirabilis 18) [µg/mL]	MIC (Klebsiella pneumoniae 20) [µg/mL]	SMILES
0.05 (≈ 0.0927 µM)	0.1 (≈ 0.185 µM)	CO/N=C(\C(=O)NC1C(=O)N2C(C(=O)O)=C(COC(=O)N3CCN(C)CC3)CSC12)c1csc(N)n1 (stereo not shown) [(1)]
0.2 (≈ 0.37 µM)	0.05 (≈ 0.0925 µM)	CO/N=C(\C(=O)NC1C(=O)N2C(C(=O)O)=C(COC(=O)N3CCN(C)CC3)CSC12)c1nsc(N)n1 (stereo not shown) [(2)]
